US8247170B2, “Detection of penicillin tolerance in Group B Streptococcus: single nucleotide polymorphisms in penicillin binding protein 4” (priority 2008, dated 2012)

System: GBS laboratory strains
Assay: Penicillin induced lysis (OD600 change)
Assay type: cell-based, Group B Streptococcus
Details: 100×MIC90 Penicillin G 22 hours
Experimental: In this series of study, the three GBS laboratory strains (i.e., A909, NEM316, and O90R) were cultured for 18 hours at 37° C. in THB. Subcultures in THB were subsequently grown to exponential phase (OD600˜0.3) at 37° C. Cells were treated with 100×MIC90 Penicillin G for an additional 22 hours. OD600 of these cell cultures before (O.D. initial) and after penicillin treatment (O.D. experimental) was measured (N=3). The values of O.D. experimental were subtracted from O.D. initial. (See FIG. 2).
(I) Bacterial Strains and Culture Conditions. GBS strains A909 (serotype IA), 515 (serotype IA), NEM316 (serotype III), COHI (serotype III), 2603V/R (serotype V) and O90R (non-typable) were used in this study. E. coli Top10 cells were used for the recombination experiments. GBS was cultured in Todd Hewitt broth (THB) or Tryptic Soy 5% sheep blood (TS) media and E. coli in Luria-broth (LB) medium or agar. Antibiotics were used at the following concentrations: for GBS—penicillin G (MIC90 0.06 μg ml^−1), ampicillin (MIC90 0.12 μg ml^−1), vancomycin (MIC90 2 μg ml^−1), cefazolin (MIC90 1 μg ml^−1) and chloramphenicol (5 μg ml^−1); for E. coli—ampicillin (50 μg ml^−1) and chloramphenicol (5 μg ml^−1). Both GBS and E. coli cultures were grown at 37° C. (II) Tolerance Using the MBC:MIC Ratio Method. Three GBS laboratory strains (i.e., A909, NEM316, and O90R) were cultured overnight for 18 h at 37° C. in THB. Subcultures in THB were subsequently grown to exponential phase (OD600˜0.3; i.e. 5×10^5 cfu/ml) at 37° C. Cell cultures were then exposed to different concentrations of antibiotics (Penicillin G, Ampicillin, Cefozolin or Vancomycin). […] Cell cultures were allowed to re-grow for an additional 24 h at 37° C. before the OD600 was measured. […] The initial (in.) cellular ATP concentration ([ATP]) was measured using the ENLITEN (Promega) luciferase based reaction kit. […] The experimental (exp.) cellular ATP was extracted and the concentration was measured as stated above. […]

CC1(C)S[C@@H]2[C@H](NC(=O)Cc3ccccc3)C(=O)N2[C@H]1C(=O)O [Penicillin G]
change in OD600 (lysis, FIG. 2) (GBS strain A909): decrease in OD
change in OD600 (lysis, FIG. 2) (GBS strain NEM316): did not
change in OD600 (lysis, FIG. 2) (GBS strain O90R): did not
